Patent US9669034B2, “4-aryl-N-phenyl-1,3,5-triazin-2-amines containing a sulfoximine group” (BAYER INTELLECTUAL PROPERTY GMBH, priority 2011, dated 2017)
Where two headings read alike, the source gives them in different places.

Key:
[1] = test system: NCI-H460, human non-small cell lung carcinoma cells; assay: Proliferation assay (crystal violet), NCI-H460; assay type: cell-based; conditions: Homo sapiens, NCI-H460, NCI-H460 cells, Method 3; read-out: Inhibition of NCI-H460 cell proliferation, IC50
Description: (§1) Cultivated tumour cells (NCI-H460, human non-small cell lung carcinoma cells, ATCC HTB-177; DU145, hormone-independent human prostate carcinoma cells, ATCC HTB-81; HeLa-MaTu, human cervical carcinoma cells, EPO-GmbH, Berlin; HeLa-MaTu-ADR, multidrug-resistant human cervical carcinoma cells, EPO-GmbH, Berlin; HeLa human cervical tumour cells, ATCC CCL-2; Caco-2 human colorectal carcinoma, ATCC HTB-37; B16F10 mouse melanoma cells, ATCC CRL-6475) were plated at a density of 5000 cells/well (DU145, HeLa-MaTu-ADR), 3000 cells/well (NCI-H460, HeLa-MaTu, HeLa), 1500 cells/well (Caco-2), or 1000 cells/well (B16 F10) in a 96-well multititer plate in 200 μL of their respective growth medium supplemented 10% fetal calf serum. After 24 hours, the cells of one plate (zero-point plate) were stained with crystal violet (see below), while the medium of the other plates was replaced by fresh culture medium (200 μL), to which the test substances were added in various concentrations (0 M, as well as in the range of […]; the final concentration of the solvent dimethylsulfoxide was 0.5%). The cells were incubated for 4 days in the presence of test substances. Cell proliferation was determined by staining the cells with crystal violet: the cells were fixed by adding 20 μL/measuring point of an 11% glutaric aldehyde solution for 15 minutes at room temperature. After three washing cycles of the fixed cells with water, the plates were dried at room temperature. The cells were stained by adding 100 μL/measuring point of a 0.1% crystal violet solution (pH 3.0). After three washing cycles of the stained cells with water, the plates were dried at room temperature. The dye was dissolved by adding 100 μL/measuring point of a 10% acetic acid solution. The absorbance was determined by photometry at a wavelength of 595 nm. The change of cell number, in percent, was calculated by normalization of the measured values to the absorbance values of the zero-point plate (=0%) and the absorbance of the untreated (0 M) cells (=100%). The IC50 values were determined by means of a 4 parameter fit.

[2] = test system: B16F10 mouse melanoma cells; assay: Proliferation assay (crystal violet), B16F10; assay type: cell-based; conditions: Mus musculus, B16-F10, B16F10 cells, Method 3; read-out: Inhibition of B16F10 cell proliferation, IC50
Description: as §1

[3] = test system: DU145, hormone-independent human prostate carcinoma cells; assay: Proliferation assay (crystal violet), DU145; assay type: cell-based; conditions: Homo sapiens, DU-145, DU145 cells, Method 3; read-out: Inhibition of DU145 cell proliferation, IC50
Description: as §1

[4] = biological target: CDK2/CycE (Homo sapiens (Human), UniProt P24941); assay: CDK2/CycE kinase assay (TR-FRET); assay type: biochemical; conditions: Method 2
Excerpt: 2. CDK2/CycE Kinase Assay:
CDK2/CycE—inhibitory activity of compounds of the present invention was quantified employing the CDK2/CycE TR-FRET assay as described in the following paragraphs:
Recombinant fusion proteins of GST and human CDK2 and of GST and human CycE, expressed in insect cells (Sf9) and purified by Glutathion-Sepharose affinity chromatography, were purchased from ProQinase GmbH (Freiburg, Germany). As substrate for the kinase reaction biotinylated peptide biotin-Ttds-[…]

[5] = test system: HeLa-MaTu-ADR, multidrug-resistant human cervical carcinoma cells; assay: Proliferation assay (crystal violet), HeLa-MaTu-ADR; assay type: cell-based; conditions: Homo sapiens, HeLa, Method 3, read-out: Inhibition of HeLa/MaTu/ADR cell proliferation, IC50
Description: as §1

[6] = test system: Caco-2 human colorectal carcinoma; assay: Proliferation assay (crystal violet), Caco-2; assay type: cell-based; conditions: Homo sapiens, Caco-2, Caco-2 cells, Method 3; read-out: Inhibition of Caco-2 cell proliferation, IC50
Description: as §1

[7] = biological target: CDK9/CycT1 (Homo sapiens (Human), UniProt P50750); assay: CDK9/CycT1 kinase assay (TR-FRET); assay type: biochemical; conditions: Method 1
Chain of CDK9/CycT1 (P50750 whole entry): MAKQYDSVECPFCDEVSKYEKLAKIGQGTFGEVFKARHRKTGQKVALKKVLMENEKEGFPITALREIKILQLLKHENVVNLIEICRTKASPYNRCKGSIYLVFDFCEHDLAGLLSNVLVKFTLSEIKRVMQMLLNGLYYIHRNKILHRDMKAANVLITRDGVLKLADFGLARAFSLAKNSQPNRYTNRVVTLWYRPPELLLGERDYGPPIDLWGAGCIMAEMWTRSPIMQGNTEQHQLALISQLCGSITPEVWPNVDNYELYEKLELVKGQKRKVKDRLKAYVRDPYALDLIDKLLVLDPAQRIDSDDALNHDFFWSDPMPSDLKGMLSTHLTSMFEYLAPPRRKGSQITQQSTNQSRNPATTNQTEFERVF
Chain of CDK9/CycT1 (O60563 whole entry partner): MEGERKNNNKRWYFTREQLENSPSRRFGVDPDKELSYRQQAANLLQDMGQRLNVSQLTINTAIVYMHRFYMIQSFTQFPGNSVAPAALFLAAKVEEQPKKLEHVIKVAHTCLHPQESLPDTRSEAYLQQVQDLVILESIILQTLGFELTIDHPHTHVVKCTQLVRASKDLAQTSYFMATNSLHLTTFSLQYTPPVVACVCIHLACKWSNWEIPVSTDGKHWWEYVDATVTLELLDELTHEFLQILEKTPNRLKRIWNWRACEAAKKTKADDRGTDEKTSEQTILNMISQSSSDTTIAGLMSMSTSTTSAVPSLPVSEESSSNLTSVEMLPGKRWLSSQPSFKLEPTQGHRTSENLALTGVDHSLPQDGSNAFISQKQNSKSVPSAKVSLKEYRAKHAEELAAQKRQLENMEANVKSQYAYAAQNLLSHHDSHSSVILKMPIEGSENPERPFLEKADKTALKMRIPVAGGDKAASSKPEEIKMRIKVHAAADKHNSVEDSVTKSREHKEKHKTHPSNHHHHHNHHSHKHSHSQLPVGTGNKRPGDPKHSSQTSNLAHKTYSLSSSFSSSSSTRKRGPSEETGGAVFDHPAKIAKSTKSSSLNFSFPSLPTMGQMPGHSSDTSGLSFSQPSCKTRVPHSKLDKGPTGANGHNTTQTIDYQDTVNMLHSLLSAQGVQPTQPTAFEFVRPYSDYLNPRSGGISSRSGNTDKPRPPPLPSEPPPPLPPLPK
Excerpt: 1. CDK9/CycT1 Kinase Assay:
CDK9/CycT1—inhibitory activity of compounds of the present invention was quantified employing the CDK9/CycT1 TR-FRET assay as described in the following paragraphs:
Recombinant full-length His-tagged human CDK9 and CycT1, expressed in insect cells and purified by Ni-NTA affinity chromatography, were purchased from Invitrogen (Cat. No PV4131). As substrate for the kinase reaction biotinylated peptide biotin-Ttds-[…]

[8] = test system: HeLa human cervical tumour cells; assay: Proliferation assay (crystal violet), HeLa; assay type: cell-based; conditions: Method 3, read-out: Inhibition of HeLa cell proliferation, IC50
Description: as §1

Structure (SMILES)	IC50 [1] [nM]	IC50 [2] [nM]	IC50 [3] [nM]	IC50 [4] [nM]	IC50 [5] [nM]	IC50 [6] [nM]	IC50 [7] [nM]	IC50 ([8]; Homo sapiens, HeLa) [nM]	IC50 [8] [nM]
CCOC(=O)N=S(C)(=O)Cc1cccc(Nc2ncnc(-c3cc(F)c(F)cc3OC)n2)c1 (racemic) [Example 9, (rac)-Ethyl [(3-{[4-(4,5-difluoro-2-methoxyphenyl)-1,3,5-triazin-2-yl]amino}benzyl)(methyl)oxido-λ^6-sulfanylidene]carbamate]	980	1000	900	690	960	800	8		
CNC(=O)N=S(C)(=O)Cc1cccc(Nc2ncnc(-c3ccc(F)cc3OC)n2)c1 (racemic) [Example 15, (rac)-1-[(3-{[4-(4-Fluoro-2-methoxyphenyl)-1,3,5-triazin-2-yl]amino}benzyl)(methyl)oxido-λ^6-sulfanylidene]-3-methylurea]	1000	620	370	930	940	1000	7	390	
COc1cc(F)ccc1-c1ncnc(Nc2cccc(CS(C)(=O)=NC(C)=O)c2)n1 (racemic) [Example 24, (rac)-N-[(3-{[4-(4-fluoro-2-methoxyphenyl)-1,3,5-triazin-2-yl]amino}benzyl)(methyl)oxido-λ^6-sulfanylidene]acetamide]	760	940	680	1800	520	710	11	490	
CCOC(=O)N=S(C)(=O)Cc1cccc(Nc2ncnc(-c3cccc4c3OCCC4)n2)c1 (racemic) [Example 29, (rac)-Ethyl [(3-{[4-(3,4-dihydro-2H-chromen-8-yl)-1,3,5-triazin-2-yl]amino}benzyl)(methyl)oxido-λ^6-sulfanylidene]carbamate]	720	960	540	1200	760	760	13	510	
CCOC(=O)N=S(C)(=O)Cc1cc(F)cc(Nc2ncnc(-c3ccc(F)cc3OC)n2)c1 (racemic) [Example 51, (rac)-Ethyl [(3-fluoro-5-{[4-(4-fluoro-2-methoxyphenyl)-1,3,5-triazin-2-yl]amino}benzyl)(methyl)oxido-λ^6-sulfanylidene]carbamate]	230	340	240	430	240	290		300	
COc1cc(F)ccc1-c1ncnc(Nc2cc(F)cc(CS(C)(=N)=O)c2)n1 (racemic) [Example 52, (rac)-4-(4-Fluoro-2-methoxyphenyl)-N-{3-fluoro-5-[(S-methylsulfonimidoyl)methyl]phenyl}-1,3,5-triazin-2-amine]	650	550	340	1000	140	690		410	
CS(=N)(=O)Cc1cccc(Nc2ncnc(-c3ccc(F)cc3OCCCC(F)(F)F)n2)c1 (racemic) [Example 100, (rac)-4-[4-Fluoro-2-(4,4,4-trifluorobutoxy)phenyl]-N-{3-[(S-methylsulfonimidoyl)methyl]phenyl}-1,3,5-triazin-2-amine]				1300			6	920	
CCS(=N)(=O)Cc1cccc(Nc2ncnc(-c3ccc(F)cc3OC)n2)c1 (racemic) [Example 108, (rac)-N-{3-[(S-ethylsulfonimidoyl)methyl]phenyl}-4-(4-fluoro-2-methoxyphenyl)-1,3,5-triazin-2-amine]				1000			8	1000	
COc1cc(F)ccc1-c1ncnc(Nc2ccc(Cl)c(CS(C)(=N)=O)c2)n1 (single isomer, unassigned) [Example 59.a, N-{4-Chloro-3-[(S-methylsulfonimidoyl)methyl]phenyl}-4-(4-fluoro-2-methoxyphenyl)-1,3,5-triazin-2-amine]				2900			25	1100	
COc1cc(F)ccc1-c1ncnc(Nc2ccc(Cl)c(CS(C)(=N)=O)c2)n1 (single isomer, unassigned) [Example 59.b, N-{4-Chloro-3-[(S-methylsulfonimidoyl)methyl]phenyl}-4-(4-fluoro-2-methoxyphenyl)-1,3,5-triazin-2-amine]				1800			33		1100

Further lines, results first:

IC50 [1] [nM]	IC50 [2] [nM]	IC50 [3] [nM]	IC50 [4] [nM]	IC50 [5] [nM]	IC50 [6] [nM]	IC50 [7] [nM]	IC50 ([8]; Homo sapiens, HeLa) [nM]	IC50 [8] [nM]	Structure (SMILES)
980		990	2200	850	890	10	1000		CS(=N)(=O)Cc1cccc(Nc2ncnc(-c3ccc(F)cc3OCC3CCCCC3)n2)c1 (racemic) [Example 55, (rac)-4-[2-(Cyclohexylmethoxy)-4-fluorophenyl]-N-{3-[(S-methylsulfonimidoyl)methyl]phenyl}-1,3,5-triazin-2-amine]
			1400			8	1100		CS(=N)(=O)Cc1cccc(Nc2ncnc(-c3ccc(F)cc3OCc3ccc(C(F)(F)F)cc3)n2)c1 (racemic) [Example 86, (rac)-4-(4-Fluoro-2-{[4-(trifluoromethyl)benzyl]oxy}phenyl)-N-{3-[(S-methylsulfonimidoyl)methyl]phenyl}-1,3,5-triazin-2-amine]
			2000			7	680		CS(=N)(=O)Cc1cccc(Nc2ncnc(-c3ccc(F)cc3OCc3ccon3)n2)c1 (racemic) [Example 93, (rac)-4-[4-Fluoro-2-(1,2-oxazol-3-ylmethoxy)phenyl]-N-{3-[(S-methylsulfonimidoyl)methyl]phenyl}-1,3,5-triazin-2-amine]
			1800			21	1100		CS(=N)(=O)Cc1cccc(Nc2ncnc(-c3ccc(F)cc3OCC(F)F)n2)c1 (racemic) [Example 95, (rac)-4-[2-(2,2-Difluoroethoxy)-4-fluorophenyl]-N-{3-[(S-methylsulfonimidoyl)methyl]phenyl}-1,3,5-triazin-2-amine]
			350			3	1000		Cc1cc(COc2cc(F)ccc2-c2ncnc(Nc3cccc(CS(C)(=N)=O)c3)n2)ccc1F (racemic) [Example 96, (rac)-4-{4-Fluoro-2-[(4-fluoro-3-methylbenzyl)oxy]phenyl}-N-{3-[(S-methylsulfonimidoyl)methyl]phenyl}-1,3,5-triazin-2-amine]
			200			3	940		CS(=N)(=O)Cc1cccc(Nc2ncnc(-c3ccc(F)cc3OCc3ccc(F)c(Cl)c3)n2)c1 (racemic) [Example 97, (rac)-4-{2-[(3-Chloro-4-fluorobenzyl)oxy]-4-fluorophenyl}-N-{3-[(S-methylsulfonimidoyl)methyl]phenyl}-1,3,5-triazin-2-amine]
			1200			7	1100		CS(=N)(=O)Cc1cccc(Nc2ncnc(-c3ccc(F)cc3OCc3cc(F)c(F)cc3F)n2)c1 (racemic) [Example 103, (rac)-4-{4-Fluoro-2-[(2,4,5-trifluorobenzyl)oxy]phenyl}-N-{3-[(S-methylsulfonimidoyl)methyl]phenyl}-1,3,5-triazin-2-amine]
